Measured values reported in patent publication US20240140953A1, “INHIBITORS OF MENIN-MLL INTERACTION” (BIOMEA FUSION, INC., priority 2018, published 2024).
Read-outs that look alike come from different tables or passages of the source.

Columns and labels:
MV-4-11 = experiment: Long term proliferation assay (Table 3A), MV-4-11; assay type: cell-based; conditions: Homo sapiens, MV4-11
Protocol: (§1) Example 5b: IC50 determination of compounds of invention in various cell lines (Long Term Proliferation Assay)
(§2) The following 5 cell lines are used or can be used for the long term proliferation assay.
(§3) Compounds of invention are tested in the 5 suspension lines by 14-day long-term proliferation assay.
(§4) The compound is tested in 10-pt dose titration (client will determine the starting concentration and the dilution scheme) and the final DMSO concentration is kept at 0.2%.
(§5) Vehicle and media control are also included. All treatments are done in triplicate.
(§6) 3 plates are used for each cell line and 15 plates are used for the 5 cell lines.
(§7) • 1) On Day 0, in a flat bottom 96-well plate, add 100 μL of cells per well at the densities optimized. • 2) Prepare compounds in DMSO at 500× final concentration. Dilute the compounds with DMSO at the dilution. • 3) Dilute the compounds in media at 3×final concentration. Add 50 μL of compound or DMSO at 3× final concentration to each well. Final volume in each well is 150 μL, and final concentration of DMSO is 0.2%. Also include 3 untreated control wells, by adding 50 μL of media alone. 4) Incubate plates for 96 hours. • 5) Count the cells using the Acumen, with capabilities for 96-well plates. Pipette cells up and down to mix in each well, and add desired volume of cells to a new flat bottom poly-D-lysine 96-well plate. Add Calcein AM at 1 μM final concentration. Let cells sit at RT for 10 mins followed by a quick spin to get cells settled on the bottom of the wells. Incubate the plate for additional 40 mins in the incubator. Take out the plate and read by Acumen. Calculate the cell numbers taken into account the dilution factors. • 6) Split the master plate. To do this take the total viable cell count calculated using step 5). Take the average of the replicates for each dose in order to be used in splitting the cells. • 7) Use a 96 well V-bottom plate to spin down the cells to remove old media and compound to split the cells. Based on the split ratio place the proper amount of media and cells into the V-bottom plate, and spin the plate at 1100 rpm for 5 minutes. • 8) Following the spin remove the media, careful not to disturb the cellpellet. • 9) Re-suspend pellet in 100 μL fresh media, and add to a new 96-well flat bottom plate. • 10) Add fresh compound, in the same manner as Step 3). • 11) Incubate plates for 72 hours. Repeat steps 5)-10) on Day 7. • 12) Incubate plates for 96 hours. Repeat Step 5)-10) on Day 11. • 13) Incubate 72 hours and repeat step 5) to take a final count. • 14) Data Analysis
(§8) To calculate growth for days 4, 7, 11, and 14: • Calculate the split factor for day 4 to 7, day 7 to 11, and day 11-14.

MOLM-13 = experiment: Long term proliferation assay (Table 3A), MOLM-13; assay type: cell-based; conditions: Homo sapiens
Protocol: as §1, §2, §3, §4, §5, §6, §7, §8

menin = menin (Homo sapiens (Human), UniProt O00255); experiment: Kd (Table 3A); assay type: binding
menin, sequence (O00255 whole entry, species assumed): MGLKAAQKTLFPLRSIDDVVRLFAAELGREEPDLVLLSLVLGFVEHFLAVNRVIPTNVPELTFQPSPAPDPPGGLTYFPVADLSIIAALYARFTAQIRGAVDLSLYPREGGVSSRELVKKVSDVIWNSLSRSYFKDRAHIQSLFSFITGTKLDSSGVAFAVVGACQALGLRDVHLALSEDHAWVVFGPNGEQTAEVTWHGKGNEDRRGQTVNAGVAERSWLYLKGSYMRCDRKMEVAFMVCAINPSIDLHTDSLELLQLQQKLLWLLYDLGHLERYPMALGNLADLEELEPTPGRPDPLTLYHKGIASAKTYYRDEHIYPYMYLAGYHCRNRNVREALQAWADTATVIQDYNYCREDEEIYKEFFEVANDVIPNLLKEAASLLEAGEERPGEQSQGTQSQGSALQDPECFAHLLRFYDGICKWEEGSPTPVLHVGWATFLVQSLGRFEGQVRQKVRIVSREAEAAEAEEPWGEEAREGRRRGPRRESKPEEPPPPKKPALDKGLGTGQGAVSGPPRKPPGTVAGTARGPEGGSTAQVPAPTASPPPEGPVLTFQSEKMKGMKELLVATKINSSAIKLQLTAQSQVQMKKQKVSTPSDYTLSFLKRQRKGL

HL-60 = experiment: Proliferation study, CellTiterGlo, 4 days (Example 102), HL-60; assay type: cell-based; conditions: HL-60, 4 days treatment; for HL-60 % max: maximal inhibition; for IC50: Homo sapiens, 96 h, CellTiterGlo
Description: (§9) The objective of the study was to evaluate the ability of representative compounds of the present invention, inhibitors of Menin/MLL interaction to inhibit cell proliferation. The proliferation inhibitory effect was investigated in two human MLL-leukemia cells selected on the bases of MLL fusion protein and listed in Table 102. HL-60 cell line was used as negative control.
(§10) ATP is present in all metabolically active cells and is considered as a marker for cell viability and proliferation. The metabolic cell activity was determined using the CellTiter-Glo kit from Promega, an ATP monitoring system based on the production of luminescence by the reaction of ATP with added UltraGlo® recombinant luciferase (Kawano et al., 2016), according to the supplier's experimental recommendations.
(§11) The described assay evaluates the ability of 4 representative compounds to inhibit the cell proliferation in the human MLL-leukemia cells plus a negative control cell line.
(§12) The assay provides potency values (IC50) for each test compound at a single time point Day 4 (T4).
(§13) Seven concentrations of the compounds (2.00E-05-6.67E-06-2.22E-06-7.41E-07-2.47E-07-8.23E-08-2.74E-08M), were assessed in duplicate in an individual test occasion in all the cell lines. MI-503 (Borkin et al., 2015) was used as reference compound and was tested at the same concentrations as the NCEs. 100% of proliferation is represented by the untreated cells (0.2% DMSO). The cell growth was monitored up to 4 days in culture.
(§14) MV4-11, MOLM-13 and HL-60 cells (see Table 2) were maintained in RPMI-1640 medium (Invitrogen, Cat. n. 618700, Batch n. 1965930) supplemented with 10% of Heat Inactivated FBS (Invitrogen, Cat n. 10500, Batch n. 08Q8078K) and 1% Pen-Strep (Invitrogen, Cat. N. 15140, Batch n. 1910859) and cultured at 37° C. in a humidified incubator with 5% CO2. All the cell lines grow in suspension and the cell density was maintained in a range of 2×10^5-1×10^6 viable cells/ml. Cells were pelleted at 130 g×5 min and conditioned medium was used to dilute the cell suspension.
(§15) Test items were dissolved in glass vials at 10 mM in DMSO with purity ≥99.9% (Sigma, D8418, batch n. SHBH4245V) and stored at −20° C. in 1.5 mL Eppendorf tubes.
(§16) Serial dilutions 1 to 3 in DMSO 100% were prepared starting from a 10 mM stock solutions to generate 7 points concentration response curve (CRC).
(§17) For each plate to test, one 0.4 μL copy plate and four 0.3 μL copy plates were then stamped into 96-well plates not treated for cell adhesion (Sarstedt—cat.no. 82.1581.001) by acoustic liquid Handling, Echo, at a concentration which was 500 fold the final assay concentration. Stamped plates were stored at −20° C. The final concentrations for the reference compound, MI-503, and the test items were: 2.00E-05, 6.67E-06, 2.22E-06, 7.41E-07, 2.47E-07, 8.23E-08 and 2.74E-08 M.
(§18) Cells were plated in 96-well flat bottom microtiter plates at cell density of 15,000 cells/ml for HL-60, 1000 cells/ml for MOLM-13 and 10,000 cell/ml for MV4-11. Cells were treated with 0.2% DMSO (Sigma, D8418, batch n. SHBH4245V) or serial dilutions of compounds (0.027 μM-20 μM) in DMSO (0.2% final concentration). Cells were incubated in a 5% CO2 incubator at 37° C. for 4 days. A CellTiterGlo viability assay (Promega) was employed. Luminescence was read by using VictorV (Perkin Elmer) multilabel plate reader using the standard protocol for luminescence in 96 well plate. The experiment was performed in duplicate.
(§19) Data were expressed as % of inhibition compared to the 0.2% DMSO negative control, and was calculated as follows: […]
(§20) CRCs were analysed by GraphPad and IC50 values were calculated by non-linear regression using 4 parameter-logistic equation. IC50 (μM) values were reported in the final data table. The curve fittings were performed leaving free all the parameters. Any constrain were reported in the results table.

MV4-11 (MLL-AF4) = experiment: Proliferation study, CellTiterGlo, 4 days (Example 102), MV4-11; assay type: cell-based, human; conditions: MV4-11, 4 days treatment; for IC50: Homo sapiens, MV4-11, 96 h, CellTiterGlo; for MV4-11 (MLL-AF4) % max: maximal inhibition
Description: as §9, §10, §11, §12, §13, §14, §15, §16, §17, §18, §19, §20

MOLM-13 (MLL-AF9) = experiment: Proliferation study, CellTiterGlo, 4 days (Example 102), MOLM-13; assay type: cell-based, human; conditions: MOLM-13, 4 days treatment; for IC50: Homo sapiens, 96 h, CellTiterGlo; for MOLM-13 (MLL-AF9) % max: maximal inhibition
Description: as §9, §10, §11, §12, §13, §14, §15, §16, §17, §18, §19, §20

[1] = MV-4-11, Day 4, read-out: MV-4-11 Day 4 IC50
[2] = MV-4-11, Day 11, read-out: MV-4-11 Day 11 IC50
[3] = 96 h, MOLM-13, Day 4, read-out: MOLM-13 Day 4 IC50
[4] = 264 h, MOLM-13, Day 11, read-out: MOLM-13 Day 11 IC50
[5] = read-out: HL-60 pIC50 (converted)
[6] = read-out: MV4-11 (MLL-AF4) IC50
[7] = read-out: MV4-11 (MLL-AF4) pIC50 (converted)
[8] = read-out: MOLM-13 (MLL-AF9) IC50
[9] = read-out: MOLM-13 (MLL-AF9) pIC50 (converted)

Row | IC50 (MV-4-11; [1]) | IC50 (MV-4-11; [2]) | IC50 (MOLM-13; [3]) | IC50 (MOLM-13; [4]) | Kd (menin) | IC50 (HL-60; read-out: HL-60 IC50) | IC50 (HL-60; [5]) | IC50 (MV4-11 (MLL-AF4); [6]) | IC50 (MV4-11 (MLL-AF4); [7]) | IC50 (MOLM-13 (MLL-AF9); [8]) | IC50 (MOLM-13 (MLL-AF9); [9]) | SMILES | HL-60 % max (HL-60) | MV4-11 (MLL-AF4) % max (MV4-11 (MLL-AF4)) | MOLM-13 (MLL-AF9) % max (MOLM-13 (MLL-AF9))
1 | 129 nM | 66 nM | 115 nM | 32 nM |  |  |  |  |  |  |  | O=C(Cc1cc(-c2cccnc2)no1)Nc1ccc(-c2cc3c(N4CCOCC4)ncnc3[nH]2)cc1 [Compound 5, N-{4-[4-(morpholin-4-yl)-7H-pyrrolo[2,3-d]pyrimidin-6-yl]phenyl}-2-[3-(pyridin-3-yl)-1,2-oxazol-5-yl]acetamide] |  |  | 
2 | 229 nM | 74 nM | 178 nM | 50 nM |  |  |  |  |  |  |  | CC(C)c1c(-c2cccnc2)noc1NC(=O)Nc1ccc(-c2cc3c(N4CCOCC4)ncnc3[nH]2)cc1 [Compound 6, 1-{4-[4-(morpholin-4-yl)-7H-pyrrolo[2,3-d]pyrimidin-6-yl]phenyl}-3-[4-(propan-2-yl)-3-(pyridin-3-yl)-1,2-oxazol-5-yl]urea] |  |  | 
3 | 891 nM | 631 nM | 933 nM | 871 nM |  |  |  |  |  |  |  | CC(C)c1cc(-c2cc3c(N4CCOCC4)ncnc3[nH]2)ccc1NC(=O)Nc1cc(-c2cccnc2)no1 [Compound 7, 1-{4-[4-(morpholin-4-yl)-7H-pyrrolo[2,3-d]pyrimidin-6-yl]-2-(propan-2-yl)phenyl}-3-[3-(pyridin-3-yl)-1,2-oxazol-5-yl]urea] |  |  | 
4 | 220 nM |  | 310 nM |  | 2700 ± 4000 nM | 360 nM | 363 nM | 220 nM | 224 nM | 310 nM | 309 nM | O=C(Cc1cc(-c2cccnc2)n[nH]1)Nc1ccc(-c2cc3c(N4CCOCC4)ncnc3[nH]2)cc1 [Compound 10, N-{4-[4-(morpholin-4-yl)-7H-pyrrolo[2,3-d]pyrimidin-6-yl]phenyl}-2-[3-(pyridin-3-yl)-1H-pyrazol-5-yl]acetamide] | 65% | 100% | 94%
5 | 910 nM |  | 1230 nM |  |  | 2750 nM | 2750 nM | 910 nM | 912 nM | 1230 nM | 1230 nM | Cc1cn(-c2ncnc3[nH]c(-c4ccc(NC(=O)Cc5cc(-c6cccnc6)n[nH]5)cc4)cc23)cn1 [Compound 13, N-{4-[4-(4-methyl-1H-imidazol-1-yl)-7H-pyrrolo[2,3-d]pyrimidin-6-yl]phenyl}-2-[3-(pyridin-3-yl)-1H-pyrazol-5-yl]acetamide] | 112% | 105% | 101%
